From patent US20090137652A1, “METHODS FOR NEUROPROTECTION” (priority 2005, published 2009)

Legend:
Assay type in all cases: in vivo, rat
[1] = test system: rats subjected to Li-pilo induced SE; assay: EEG patterns during lithium-pilocarpine SE (Example 1)
Description: (§1) Male Wistar rats weighing 225-250 g, provided by Janvier Breeding Center (Le Genest-St-lste, France) were housed under controlled standard conditions (light/dark cycle, 7.00 a.m.-7.00 p.m. lights on), with food and water available ad libitum. All animal experimentation was performed in accordance with the rules of the European Communities Council Directive of Nov. 24, 1986 (86/609/EEC), and the French Department of Agriculture (License No 67-97). For electrode implantation, rats were anesthetized by an i.p. injection of 2.5 mg/kg diazepam (DZP, Valium, Roche, France) and […] ketamine chlorhydrate (Imalgene 1000, Rhone Merrieux, France). Four single-contact recording electrodes were placed on the skull, over the parietal cortex, two on each side.
(§2) All rats received lithium chloride (3 meq/kg, i.p., Sigma, St Louis, Mo., U.S.A.); about 20 h later, animals were placed into plexiglas boxes, in order to record baseline cortical EEG. Methylscopolamine bromide (1 mg/kg, s.c., Sigma) was administered to limit the peripheral effects of the convulsant. SE was induced by injecting pilocarpine hydrochloride (25 mg/kg, s.c., Sigma) 30 min after methyl-scopolamine. The bilateral EEG cortical activity was recorded during the whole duration of SE and behavioral changes were noted.
(§3) The effects of increasing doses of the test compound were studied on 3 groups of rats. The animals of the first group received 10 mg/kg of the test compound, i.p., 1 h after the onset of SE (pilo-TC10) while the animals of groups 2 and 3 received 30 and 60 mg/kg of the test compound (pilo-TC30 and pilo-TC60), respectively.
(§4) Another group was injected with 2 mg/kg diazepam (DZP, i.m.) at 1 h after the onset of SE. This is a standard treatment to improve animals survival after SE (pilo-DZP). The control group received saline instead of pilocarpine and the test compound (saline-saline). The pilo-test compound rats surviving SE were then injected about 10 h after the first test compound injection with a second i.p. injection of the same dose of the test compound and were maintained under a twice daily treatment with the test compound for 6 additional days. Pilo-DZP received a second injection of 1 mg/kg DZP on the day of SE at about 10 h after the first one. Thereafter, Pilo-DZP and saline-saline rats received twice daily an equivalent volume of saline.
The effects of the test compound on the EEG and on the latency to occurrence of SRS were investigated by daily video recording of the animals for 10 h per day and the recording of the electrographic activity twice a week for 8 h.

[2] = test system: rats subjected to Li-pilo induced SE; assay: Mortality induced by lithium-pilocarpine status epilepticus (Example 1)
Description: as §1, §2, §3, §4
The difference was statistically significant (p<0.01).

[3] = test system: rats subjected to Li-pilo induced SE; assay: Timm staining, mossy fiber sprouting in hippocampus (Example 1)
Description: At 2 months after the onset of spontaneous recurrent seizures, mossy fiber sprouting was examined on rats in the chronic period exposed to the test compound or DZP and in 3 saline-saline rats. Animals were deeply anaesthetized and perfused transcardially with saline followed by 100 ml of 1.15% (w/v) Na2S in 0.1 M phosphate buffer, and 100 ml of 4% (v/v) formaldehyde in 0.1 M phosphate buffer. Brains were removed from skull, post-fixed in 4% formaldehyde during 3-5 h and 40 μm sections were cut on a sliding vibratome and mounted on gelatin-coated slides.
The following day, sections were developed in the dark in a 26° C. solution of 50% (w/v) arabic gum (160 ml), sodium citrate buffer (30 ml), 5.7% (w/v) hydroquinone (80 ml) and 10% (w/v) silver nitrate (2.5 ml) during 40-45 min. The sections were then rinsed with tap water at 40° C. during at least 45 min, rinsed rapidly with distilled water and allowed to dry. They were dehydrated in ethanol and coverslipped.
Mossy fiber sprouting was evaluated according to criteria previously described in dorsal hippocampus (Cavazos et al., 1991, J Neurosci 11:2795-2803), which are follows: O— no granules between the tips and crest of the DG; 1—sparse granules in the supragranular region in a patchy distribution between the tips and crest of DG; 2—more numerous granules in a continuous distribution between the tips and crest of DG; 3—prominent granules in a continuous pattern between tips and crest, with occasional patches of confluent granules between tips and crest; 4—prominent granules that form a confluent dense laminar band between tips and crest and 5—confluent dense laminar band of granules that extends into the inner molecular layer.

Compound | EEG activity in the cortex and the hippocampus by 6-7 h of SE ([1]; DZP-treated rats (2 mg/kg i.m.)) | degree of mortality during the first 48 h after SE ([2]; pilo-DZP, DZP 2 mg/kg i.m. 1 h after onset of SE, 5/22) | mean Timm score, upper blade of the dentate gyrus ([3]; pilo-DZP, n=9, score scale 0-5) | EEG activity in the cortex and the hippocampus by 6-7 h of SE ([1]; TC10-treated rats (10 mg/kg i.p.)) | amplitude of the EEG by 6-7 h of SE, hippocampus ([1]; TC30 rats (30 mg/kg i.p.)) | amplitude of the EEG by 6-7 h of SE, hippocampus and cortex (both structures) ([1]; TC60 treated rats (60 mg/kg i.p.)) | degree of mortality during the first 48 h after SE ([2]; pilo-TC10, TC 10 mg/kg i.p. 1 h after onset of SE, 6/23) | degree of mortality during the first 48 h after SE ([2]; pilo-TC30, TC 30 mg/kg i.p. 1 h after onset of SE, 5/25) | degree of mortality during the first 48 h after SE ([2]; pilo-TC60, TC 60 mg/kg i.p. 1 h after onset of SE, 1/23, p<0.01) | mean Timm score, upper blade of the dentate gyrus ([3]; pilo-TC10, n=7, p=0.032 vs pilo-DZP) | mean Timm score, upper blade of the dentate gyrus ([3]; pilo-TC30, n=10) | mean Timm score, upper blade of the dentate gyrus ([3]; pilo-TC60 subgroup with early SRS occurrence, n=6) | mean Timm score, upper blade of the dentate gyrus ([3]; pilo-TC60 subgroup with late occurrence or absence of SRS, n=5, p=0.016 vs pilo-DZP) | mean Timm score, upper blade of the dentate gyrus ([3]; whole group of pilo-TC60 rats, n=11)
CN1C(=O)CN=C(c2ccccc2)c2cc(Cl)ccc21 [DZP, diazepam, reference compound] | spiking activity was still present | 23% | 2.8±0.8 |  |  |  |  |  |  |  |  |  |  | 
NC(=O)OC[C@@H](O)c1ccccc1Cl [Formula 7] |  |  |  | spiking activity was still present | came back to baseline levels | came back to baseline levels | 26% | 20% | 4% | 1.5±0.6 | 2.6±1.0 | 1.8±0.6 | 1.2±0.6 | 1.5±0.7
